From patent US9227971B2, “Pyrazolo[1,5-a]pyrimidine compounds as mTOR inhibitors” (Merck Sharp & Dohme Corp., priority 2010, dated 2016)

Experiments:
[1] = test system: phosphorylated 4E-BP1 Thr37/46 (p4E-BP1 Thr37/46), mTORC1 activity, PC3 cells; assay: mTOR target engagement assay, immunofluorescent cell-based, p4E-BP1 Thr37/46 readout (mTORC1 activity); details: Homo sapiens, PC-3, PC3 cells, compound treatment ninety minutes at 37° C.; read-out: p4E-BP1 Thr37/46 IC50
In short: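 PTEN-mutant PC3 prostate cells were treated with serially diluted compound in 5% FBS F12 medium (0.25% DMSO) for ninety minutes at 37° C, glyoxal-fixed, then immunostained overnight at 4° C for p4E-BP1 Thr37/46 with an Alexa Fluor 488 secondary. IC50 came from four-parameter fits of fluorescence, DMSO-only wells defining 100%.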

[2] = test system: phosphorylated AKT Ser473 (pAKT S473), mTORC2 activity, PC3 cells; assay: mTOR target engagement assay, immunofluorescent cell-based, pAKT S473 readout (mTORC2 activity); details: Homo sapiens, PC-3, PC3 cells, compound treatment ninety minutes at 37° C.
In short: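 After blocking, cells were stained overnight at 4 °C with anti-pAKT S473 antibody, then a fluorescent secondary; inhibition was read as reduced fluorescence intensity.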

Structure (SMILES) | IC50 [1] [nM] | IC50 [2] [nM]
Cc1[nH]nc(-c2ccc(-c3cnn4c(N)c(C5CC5)c([C@@H]5C[C@H]6CC[C@@H](C5)N6C(=O)CO)nc34)cn2)c1F [Compound 4.20, 1-((1R,3s,5S)-3-(7-amino-6-cyclopropyl-3-(6-(4-fluoro-5-methyl-1H-pyrazol-3-yl)pyridin-3-yl)pyrazolo[1,5-a]pyrimidin-5-yl)-8-azabicyclo[3.2.1]octan-8-yl)-2-hydroxyethanone] | 100 to 1000 | 100 to 1000
Nc1c(C2CC2)c([C@@H]2C[C@H]3CC[C@@H](C2)N3C(=O)c2nnc[nH]2)nc2c(-c3ccc(-c4cccc(F)c4)nc3)cnn12 [Compound 4.21, ((1R,3s,5S)-3-(7-amino-6-cyclopropyl-3-(6-(3-fluorophenyl)pyridin-3-yl)pyrazolo[1,5-a]pyrimidin-5-yl)-8-azabicyclo[3.2.1]octan-8-yl)(4H-1,2,4-triazol-3-yl)methanone] | 1 to 100 | 1 to 100
Nc1c(C2CC2)c([C@@H]2C[C@H]3CC[C@@H](C2)N3C(=O)CO)nc2c(-c3ccc(-c4cccc(F)c4)nc3)cnn12 [Compound 4.22, 1-((1R,3s,5S)-3-(7-amino-6-cyclopropyl-3-(6-(3-fluorophenyl)pyridin-3-yl)pyrazolo[1,5-a]pyrimidin-5-yl)-8-azabicyclo[3.2.1]octan-8-yl)-2-hydroxyethanone] | 100 to 1000 | 100 to 1000
COc1ccc2ncc(-c3cnn4c(N)c(C5CC5)c([C@@H]5C[C@H]6CC[C@@H](C5)N6C(=O)c5nnc[nH]5)nc34)cc2c1 [Compound 4.24, ((1R,3s,5S)-3-(7-amino-6-cyclopropyl-3-(6-methoxyquinolin-3-yl)pyrazolo[1,5-a]pyrimidin-5-yl)-8-azabicyclo[3.2.1]octan-8-yl)(4H-1,2,4-triazol-3-yl)methanone] | 100 to 1000 | 100 to 1000
Nc1c(C2CC2)c([C@@H]2C[C@H]3CC[C@@H](C2)N3C(=O)c2nnc[nH]2)nc2c(-c3cnn(-c4ccccc4)c3)cnn12 [Compound 4.26, ((1R,3s,5S)-3-(7-amino-6-cyclopropyl-3-(1-phenyl-1H-pyrazol-4-yl)pyrazolo[1,5-a]pyrimidin-5-yl)-8-azabicyclo[3.2.1]octan-8-yl)(4H-1,2,4-triazol-3-yl)methanone] | 100 to 1000 | 1 to 100
COc1ccc(-c2ccc(-c3cnn4c(N)c(C5CC5)c([C@@H]5C[C@H]6CC[C@@H](C5)N6C(=O)c5nnc(N)[nH]5)nc34)cn2)cc1F [Compound 4.27, (5-amino-4H-1,2,4-triazol-3-yl)((1R,3a,5S)-3-(7-amino-6-cyclopropyl-3-(6-(3-fluoro-4-methoxyphenyl)pyridin-3-yl)pyrazolo[1,5-a]pyrimidin-5-yl)-8-azabicyclo[3.2.1]octan-8-yl)methanone] | 1 to 100 | 1 to 100
CC(=O)Nc1nnc(C(=O)N2[C@@H]3CC[C@H]2C[C@H](c2nc4c(-c5ccc(-c6ccccc6)nc5)cnn4c(N)c2C2CC2)C3)[nH]1 [Compound 4.28, N-(5-((1R,3s,5S)-3-(7-amino-6-cyclopropyl-3-(6-phenylpyridin-3-yl)pyrazolo[1,5-a]pyrimidin-5-yl)-8-azabicyclo[3.2.1]octane-8-carbonyl)-4H-1,2,4-triazol-3-yl)acetamide] | 100 to 1000 | 100 to 1000
Nc1n[nH]cc1C(=O)N1[C@@H]2CC[C@H]1C[C@H](c1nc3c(-c4ccc(-c5ccccc5)nc4)cnn3c(N)c1C1CC1)C2 [Compound 4.30, (3-amino-1H-pyrazol-4-yl)((1R,3s,5S)-3-(7-amino-6-cyclopropyl-3-(6-phenylpyridin-3-yl)pyrazolo[1,5-a]pyrimidin-5-yl)-8-azabicyclo[3.2.1]octan-8-yl)methanone] | 100 to 1000 | 1 to 100
COCCNc1nnc(C(=O)N2[C@@H]3CC[C@H]2C[C@H](c2nc4c(-c5ccc(-c6ccccc6)nc5)cnn4c(N)c2C2CC2)C3)[nH]1 [Compound 4.31, ((1R,3s,5S)-3-(7-amino-6-cyclopropyl-3-(6-phenylpyridin-3-yl)pyrazolo[1,5-a]pyrimidin-5-yl)-8-azabicyclo[3.2.1]octan-8-yl)(5-(2-methoxyethylamino)-4H-1,2,4-triazol-3-yl)methanone] | 1000 to 10000 | 1000 to 10000
Nc1c(C2CC2)c([C@@H]2C[C@H]3CC[C@@H](C2)N3C(=O)NO)nc2c(-c3ccc(-c4ccccc4)nc3)cnn12 [Compound 4.32, (1R,3s,5S)-3-(7-amino-6-cyclopropyl-3-(6-phenylpyridin-3-yl)pyrazolo[1,5-a]pyrimidin-5-yl)-N-hydroxy-8-azabicyclo[3.2.1]octane-8-carboxamide] | 1 to 100 | 1 to 100
N#Cc1c([C@@H]2C[C@H]3CC[C@@H](C2)N3C(=O)CO)nc2c(-c3ccc(-c4ccccc4)nc3)cnn2c1N [Compound 5.1, 7-amino-5-((1R,3s,5S)-8-(2-hydroxyacetyl)-8-azabicyclo[3.2.1]octan-3-yl)-3-(6-phenylpyridin-3-yl)pyrazolo[1,5-a]pyrimidine-6-carbonitrile] | 100 to 1000 | 1 to 100
N#Cc1c([C@@H]2C[C@H]3CC[C@@H](C2)N3C(=O)c2nc[nH]n2)nc2c(-c3ccc(-c4ccccc4)nc3)cnn2c1N [Compound 5.2, 5-((1R,3s,5S)-8-(1H-1,2,4-triazole-3-carbonyl)-8-azabicyclo[3.2.1]octan-3-yl)-7-amino-3-(6-phenylpyridin-3-yl)pyrazolo[1,5-a]pyrimidine-6-carbonitrile] | 1 to 100 | 1 to 100
N#Cc1c([C@@H]2C[C@H]3CC[C@@H](C2)N3C(=O)c2nnc[nH]2)nc2c(-c3ccc(-c4nccs4)nc3)cnn2c1N [Compound 5.3, 5-((1R,3s,5S)-8-(4H-1,2,4-triazole-3-carbonyl)-8-azabicyclo[3.2.1]octan-3-yl)-7-amino-3-(6-(thiazol-2-yl)pyridin-3-yl)pyrazolo[1,5-a]pyrimidine-6-carbonitrile] | 1 to 100 | 1 to 100
COCc1c([C@@H]2C[C@H]3CC[C@@H](C2)N3C(=O)c2nnc[nH]2)nc2c(-c3ccc(-c4ccccc4)nc3)cnn2c1N [Compound 5.4, ((1R,3s,5S)-3-(7-amino-6-(methoxymethyl)-3-(6-phenylpyridin-3-yl)pyrazolo[1,5-a]pyrimidin-5-yl)-8-azabicyclo[3.2.1]octan-8-yl)(4H-1,2,4-triazol-3-yl)methanone] | 1 to 100 | 1 to 100
COCc1c([C@@H]2C[C@H]3CC[C@@H](C2)N3C(=O)c2cc(N)n[nH]2)nc2c(-c3ccc(-c4ccccc4)nc3)cnn2c1N [Compound 5.5, (3-amino-1H-pyrazol-5-yl)((1R,3s,5S)-3-(7-amino-6-(methoxymethyl)-3-(6-phenylpyridin-3-yl)pyrazolo[1,5-a]pyrimidin-5-yl)-8-azabicyclo[3.2.1]octan-8-yl)methanone] | 1000 to 10000 | 100 to 1000
COCc1c([C@@H]2C[C@H]3CC[C@@H](C2)N3C(=O)c2nnc[nH]2)nc2c(-c3ccc(-c4ccc(OC)cc4)nc3)cnn2c1N [Compound 5.6, ((1R,3s,5S)-3-(7-amino-6-(methoxymethyl)-3-(6-(4-methoxyphenyl)pyridin-3-yl)pyrazolo[1,5-a]pyrimidin-5-yl)-8-azabicyclo[3.2.1]octan-8-yl)(4H-1,2,4-triazol-3-yl)methanone] | 1 to 100 | 1 to 100
